This note sets out measurements from patent US9512176B2, “Age inhibitors” (Centre National de la Recherche Scientifique, priority 2005, dated 2016).

“Also recorded” adds a separate entry of the source. Non-standard residues stand in square brackets, D forms with d. Residues, ends and D or L forms follow the SMILES beside them. ξ: configuration not given here. Ile(3ξ) = CCC(C)[C@H](N)C(=O)O; dDap = NC[C@@H](N)C(=O)O; Dap = NC[C@H](N)C(=O)O

For one data set, the system named is EA.hy 926 cell line. The data set can be described thus: Growth of EA.hy 926 endothelial cells with MG scavengers and/or methylglyoxal (MTT). It is filed as cell-based, human. The note with it: for Difference (B) − (A): Table 2, cells with scavenger + MG minus cells with scavenger alone; for Cells + MG scavengers (A): scavenger 1 mM, no methylglyoxal, number of cells relative to untreated control cells; for viability at 1000 µM: Homo sapiens, EA.hy 926, read-out: Cells + MG scavengers + Methylglyoxal (B); for cell toxicity: text b496, compound alone; for difference between number of cells growing with compound and with MG and compound: values in brackets; for effect against suppression of cell growth by MG: scavenger + methylglyoxal. The procedure: The cells used for the test are from the EA.hy 926 cell line, which are endothelial cells obtained by the hybridization of human umbilical vein endothelial cells (HUVECs) with lung cancer cells (A549). The EA.hy 926 endothelial cells are incubated in Dulbecco's modified Eagle's Medium (DMEM) enriched with 10% fetal calf serum. The cells are incubated in 12-well plates. Each well initially contains 100,000 cells. Cell growth is achieved by incubating the cells in 2 ml of culture medium after adding or not adding the various potential inhibitors (1 mM) and/or methylglyoxal (600 μM) for 48 hours at 37° C. in a moist atmosphere with 5% CO2.
The number of cells is evaluated in the following way:
The cells are stained using the (4,5-dimethylthiazol-2-yl)-2,5-diphenyltetrazolium bromide (MTT) assay. MTT penetrates in the cell where it is converted into formazan. The quantity of formazan formed is proportional to the number of living cells.
The results are expressed as a relative percentage of the number of cells after treatment compared to the number of control cells without treatment [100*OD (treated cells)/OD (control cells)]. Detection is carried out by UV/visible spectrophotometry at 570 nm.
Principle: MTT (yellow) penetrates the cell and is converted into an insoluble blue compound, formazan, by cleavage of its tetrazolium rings by the mitochondrial dehydrogenase enzymes of living cells. Formazan is solubilized by isopropanol. The number of cells is proportional to the quantity of formazan formed and its absorbance.

The test system of data set [1] is ribonuclease A. The data set can be described thus: Enzymatic activity of ribonuclease A after treatment with methylglyoxal and inhibitors (methylene blue RNA staining). It is filed as biochemical. The note with it: ribonuclease A treated with methylglyoxal (MG) + inhibitor in equimolar quantity, 37° C.; control RNase 100, RNase + methylglyoxal 10.11%. The procedure:
(§1) Ribonuclease A and lysozyme (10 mg/ml) are incubated in the presence of methylglyoxal (10 mM) or in the presence of methylglyoxal and one of the inhibitors according to the present invention in an equimolar quantity at 37° C. After 48 hours of incubation, the proteins are analyzed by polyacrylamide gel electrophoresis (8%-16% SDS PAGE gel).
The enzymatic activity of ribonuclease A after treatment with methylglyoxal and the various inhibitors according to the present invention is measured using the methylene blue RNA staining technique of Greiner-Stöffele et al. (Anal. Biochem. (1996) 240, 24).

The next data set relates to lysozyme. The experiment in a line: SDS PAGE electrophoresis of lysozyme incubated with methylglyoxal and inhibitor. It is filed as biochemical. Particulars: lysozyme 10 mg/ml, methylglyoxal 10 mM, inhibitor equimolar, 37° C., 48 hours. The procedure: as §1
In data set [2] the test system is ribonuclease A. The experiment in a line: SDS PAGE electrophoresis of ribonuclease A incubated with methylglyoxal and inhibitor. It is filed as biochemical. The note with it: ribonuclease A 10 mg/ml, methylglyoxal 10 mM, inhibitor equimolar, 37° C., 48 hours. The method, then:
as §1
The AGE inhibitors according to the present invention, namely L-DAPA-L-Leu (example 1) and L-DAPA-L-Ile (example 18), or AG (10 mM) are incubated with MG and ribonuclease A for […] at 37° C.

The next data set relates to glyoxalase I. The data set can be described thus: Glyoxalase I treated with methylglyoxal: non-denaturing electrophoresis and enzymatic activity. It is filed as biochemical. The method, then: MG reacts with a protein's lysine and arginine residues, thus altering the charges on the modified polypeptide. […] The exposure of glyoxalase I to MG (10 mM) for 24 hours increases the mobility of the protein toward the positive electrode, a change that is consistent with the loss of positive charges from the ε-amino and guanidino groups and the gain of negative charges.
The incubation of glyoxalase I, a key protein in the α-oxoaldehyde detoxification system, in the presence of methylglyoxal, modifies the protein. This modification causes a change in charge and a 50% decrease in enzymatic activity compared to the control.

Another data set relates to RNase A. The experiment in a line: RNase A modifications induced by methylglyoxal (HPLC). It is filed as biochemical. Particulars: RNase A 0.08 mM, methylglyoxal 32 mM, compound 38 mM, 21 hours at 37° C. The method, then:
FIGS. 11 to 13 present the results obtained by HPLC for three compounds according to the present invention, L-DAPA-L-Ile (example 18), L-DAPA-L-Val (example 23) and L-DAPA-L-Leu (example 1), on RNase A modifications induced by methylglyoxal. HPLC conditions are as follows: C-18, Symmetry 300 (4.6×250 mm) column, injection volume 100 μl of reaction mixture diluted to 1/10; flow 1 ml/min; temperature 40° C.; solvent A: H2O+0.1% TFA; solvent B: 60/40 CH3CN/H2O+0.1% TFA; linear gradient of 20% B to 80% B in 20 minutes; detection: UV at 215 nm: PDA (chromatograms extracted at 215 nm).

Setting [3] is: scavenger 1 mM + methylglyoxal 600 μM, 48 hours, relative to untreated control cells, MG alone 24, mean of 3 experiments.
The mark [4] stands for this setting: 48 hours, mean of 3 experiments.

`NCCCC[C@H](N)C(=O)O` [L-Lys, reference compound]: the “Difference (B) − (A)” value in the data set with EA.hy 926 cell line is −38. Further, the “Cells + MG scavengers + Methylglyoxal (B)” value in the data set on EA.hy 926 cell line (setting [3]) is given as 43%. Moreover, in the data set with EA.hy 926 cell line (setting [4]), the “Cells + MG scavengers (A)” value is listed as 81%.

`NC[C@H](N)C(=O)NCC(=O)O` [example 17, L-DAPA-Gly.2HCl] (H-[Dap]-Gly-OH): in the data set with ribonuclease A [1], the “Enzymatic activity (%)” value came to 85.61%. In addition, the “protection from structural modifications (dimer form) caused by methylglyoxal” value (“protection from structural modifications” for short) in the data set with lysozyme is “provides protection”. Further, the “protection from structural modifications” value in the data set with ribonuclease A [2] is listed as “provides protection”. Also, in the data set with EA.hy 926 cell line (setting [3]), the viability at 1000 µM came to 50%. Further, in the data set on EA.hy 926 cell line, the “Difference (B) − (A)” value is recorded as −4; the cell toxicity stood at 43%; the “difference between number of cells growing with compound and with MG and compound” value (shortened to “difference between number”) is on record as “+3”. The “Cells + MG scavengers (A)” value in the data set with EA.hy 926 cell line (setting [4]) stood at 54%.

Regarding `NC[C@H](N)C(=O)N[C@@H](Cc1ccccc1)C(=O)O` [example 21, L-DAPA-L-Phe.2HCl] (H-[Dap]-Phe-OH), in the data set on ribonuclease A [1], the “Enzymatic activity (%)” value is on record as 70.20%. For the same molecule, the viability at 1000 µM in the data set on EA.hy 926 cell line (setting [3]) worked out at 71%. In the data set with EA.hy 926 cell line, the “Difference (B) − (A)” value was −6; the “difference between number” value is −6. The “Cells + MG scavengers (A)” value with EA.hy 926 cell line (setting [4]) is 77%.

On to `CC(C)C[C@H](NC(=O)[C@@H](N)CN)C(=O)O` [example 3, L-DAPA-L-Leu.2TFA] (H-[Dap]-Leu-OH), for which, in the data set with EA.hy 926 cell line, the “difference between number” value is recorded as −18.

With `C[C@@H](NC(=O)[C@H](N)CN)C(=O)O` [example 8, D-DAPA-D-Ala.2HCl] (H-[dDap]-[dA]-OH), the “Enzymatic activity (%)” value in the data set on ribonuclease A [1] is recorded as 87.37%. Further, the “protection from structural modifications” value in the data set on lysozyme is “provides protection”. Also, in the data set with ribonuclease A [2], the “protection from structural modifications” value was “provides protection”. For the same molecule, in the data set on EA.hy 926 cell line (setting [3]), the viability at 1000 µM was determined as 71%. For the same molecule, in the data set with EA.hy 926 cell line, the “Difference (B) − (A)” value is reported as −6; the cell toxicity is on record as 39%; the “difference between number” value is on record as “+1”. In addition, the “Cells + MG scavengers (A)” value with EA.hy 926 cell line (setting [4]) is 77%.

Regarding `CC(C)C[C@H](NC(=S)[C@@H](N)CN)C(=O)O` [example 16, L-DAPA-L-(S)-Leu.2HCl], in the data set on ribonuclease A [1], the “Enzymatic activity (%)” value is given as 75.69%. Moreover, the viability at 1000 µM in the data set on EA.hy 926 cell line (setting [3]) was found to be 74%. Besides, in the data set with EA.hy 926 cell line, the “Difference (B) − (A)” value was “+3”. For the same molecule, the “Cells + MG scavengers (A)” value with EA.hy 926 cell line (setting [4]) is recorded as 71%.

For the molecule `N[C@H](C(=O)NCC(=O)O)[C@@H](N)C(=O)NCC(=O)O` [example 28, (2S,3R)-DASA-1-Gly-4-Gly.2HCl], the viability at 1000 µM in the data set on EA.hy 926 cell line (setting [3]) was determined as 54%. In addition, in the data set with EA.hy 926 cell line, the “Difference (B) − (A)” value is listed as −7. Moreover, in the data set on EA.hy 926 cell line (setting [4]), the “Cells + MG scavengers (A)” value turned out to be 61%.

On to `NCCC(=O)N[C@@H](Cc1cnc[nH]1)C(=O)O` [Carnosine, β-alanyl-L-histidine, reference compound], for which the viability at 1000 µM in the data set with EA.hy 926 cell line (setting [3]) was 50%. In the data set with EA.hy 926 cell line, the “Difference (B) − (A)” value was −49 and the “effect against suppression of cell growth by MG” value (shortened to “effect against suppression”) is “less effective”. In addition, in the data set with EA.hy 926 cell line (setting [4]), the “Cells + MG scavengers (A)” value is listed as 99%.

As to `CC(C)[C@H](NC(=O)[C@@H](N)[C@H](N)C(=O)N[C@H](C(=O)O)C(C)C)C(=O)O` [example 29, (2S,3S)-DASA-1-L-Val-4-L-Val.2HCl], in the data set on ribonuclease A [1], the “Enzymatic activity (%)” value is reported as 75.09%. Further, the “protection from structural modifications” value with lysozyme and with ribonuclease A [2] was “provides protection” in each case. Besides, the viability at 1000 µM in the data set with EA.hy 926 cell line (setting [3]) is 70%. Also, the “Difference (B) − (A)” value in the data set on EA.hy 926 cell line is recorded as −15. Further, in the data set on EA.hy 926 cell line (setting [4]), the “Cells + MG scavengers (A)” value was found to be 85%. Further, the “difference between number” value in the data set with EA.hy 926 cell line is on record as −15.

In the case of `CN(C)C(=N)N=C(N)N` [Metformin, reference compound], the viability at 1000 µM with EA.hy 926 cell line (setting [3]) was 45%. For the same molecule, in the data set with EA.hy 926 cell line, the “Difference (B) − (A)” value is recorded as −46 and the “effect against suppression” value is on record as “less effective; also recorded: weak scavenger”. Further, in the data set on EA.hy 926 cell line (compound alone, 1 mM), the “toxicity with respect to EA cells” value is reported as “extremely low toxicity”. Also, the “Cells + MG scavengers (A)” value with EA.hy 926 cell line (setting [4]) came out at 91%.

Consider `CCC(C)[C@H](NC(=O)[C@@H](N)CN)C(=O)O` (stereo partly drawn) [example 18, L-DAPA-L-Ile.2HCl] (H-[Dap]-[Ile(3ξ)]-OH), for which the “Enzymatic activity (%)” value in the data set on ribonuclease A [1] is 90.77%. Besides, the “protection from structural modifications” value in the data set on lysozyme is on record as “provides protection”. Also, in the data set with glyoxalase I (MG 10 mM, 24 hours, non-denaturing electrophoresis), the “gain of negative charge of glyoxalase I exposed to MG” value was “inhibits the gain of negative charge”. Besides, the “inhibition of glyoxalase I enzymatic activity and structural modification by methylglyoxal” value with glyoxalase I (MG alone: 50% decrease in enzymatic activity) was “prevents the inhibition exerted by methylglyoxal and protects against structural modifications”. Further, the “protection from structural modifications” value with ribonuclease A [2] is reported as “provides protection”. In the data set with EA.hy 926 cell line, the “cell survival when incubated with MG” value is 79%; the “Difference (B) − (A)” value is −7; the “effect against suppression” value is recorded as “same trend”; the “difference between number” value is listed as −9. For the same molecule, the viability at 1000 µM with EA.hy 926 cell line (setting [3]) was 79%. For the same molecule, the “Cells + MG scavengers (A)” value in the data set with EA.hy 926 cell line (setting [4]) is recorded as 86%. In addition, the “RNase A modifications induced by methylglyoxal” value in the data set with RNase A was “prevent the modifications to RNase A”.

Take `CC(C)C[C@H](NC(=O)[C@@H](N)[C@H](C)N)C(=O)O` [example 12, (2S,3S)-DABA-L-Leu.2HCl]: in the data set with ribonuclease A [1], the “Enzymatic activity (%)” value stood at 80.97%. In addition, the “protection from structural modifications” value in the data set with lysozyme is “provides protection”. Besides, in the data set with ribonuclease A [2], the “protection from structural modifications” value was “provides protection”. In addition, the viability at 1000 µM in the data set with EA.hy 926 cell line (setting [3]) was found to be 73%. In addition, in the data set on EA.hy 926 cell line, the “Difference (B) − (A)” value is reported as −4; the “difference between number” value is recorded as −4. Besides, the “Cells + MG scavengers (A)” value with EA.hy 926 cell line (setting [4]) is 77%.
